{"source": "patent EP1463487B1", "about": "“LIPOSOMAL DELIVERY OF VITAMIN E BASED COMPOUNDS” (RESEARCH DEVELOPMENT FOUNDATION, priority 2001, dated 2003)", "key": {"66 cl.4-GFP cells [1]": {"system": "66 cl.4-GFP cells", "experiment": "Visible lung metastases of 66 cl.4-GFP tumors in Balb/c mice", "format": "in vivo", "design": "Inhibition (%) of visible lung metastases: concentration or dose not given beside the values", "conditions": "liposomal formulations by aerosol; for Visible lung metastases/animal: 36 µg per animal per day, 19 or 21 days; for Inhibition (%) of visible lung metastases: versus control", "excerpt": "(§1) Metastastic lesions in the five lung lobes were counted visually at time of sacrifice. Fluorescent green micro-metastatic cancer cell colonies in the left lung lobe and lymph nodes were counted using a Nikon fluorescence microscope (TE-200) with a 20 x objective (200 x magnification) and Image-Pro Plus (version 4.1; Media Cybernetics, Silver Spring, MD) software associated with the microscope. Fluorescent lesions were separated into three size grouping: <5 µm , 5-10 µm and >10 µm."}, "66 cl.4-GFP tumors": {"system": "66 cl.4-GFP tumors", "experiment": "TUNEL assay for apoptosis in tumor sections in vivo", "design": "species or system Balb/c mice", "conditions": "for % Enhanement of TUNEL Positive Apopotic Cells/Area: liposomal formulation by aerosol, versus control", "excerpt": "Deparaffinized sections (5 µm) of tumor tissue were used to assess apoptosis using reagents supplied in the ApopTag In Situ Apoptosis Detection kit (Intergen, Purchase, NY) according to the manufacturer's instructions. Nuclei that stained brown were scored as positive for apoptosis and those that stained blue were scored as negative. At least sixteen 400X microscopic fields were scored per tumor. Data are presented as the mean ± S. E number of apoptotic cells counted in three separate tumors from each group. Pictures of tumor tissue were taken at 1000X magnification."}, "CD31": {"system": "CD31", "experiment": "CD31 immunohistochemistry of tumor sections (tumor blood vessel numbers)", "format": "in vivo, Balb/c mice", "conditions": "for % Reduction of CD31 Blood Vessel Nos/Area: liposomal formulation by aerosol, versus control"}, "[2]": {"system": "proliferation biomarker KI-67", "experiment": "KI-67 immunohistochemistry of tumor sections (cell proliferation)", "format": "in vivo, Balb/c mice", "conditions": "for % Reduction of KI67: liposomal formulation by aerosol, versus control"}, "[3]": {"conditions": "after thirty minutes, cited from earlier work"}, "66 cl.4-GFP cells [4]": {"system": "66 cl.4-GFP cells", "experiment": "Tumor growth of 66 cl.4-GFP mammary tumor cells implanted in Balb/c mice", "conditions": "for tumor growth, determined by tumor volume, versus controls: liposomal preparations delivered by aerosol, 36 µg per animal per day; for reduced tumor growth: liposome aerosol, 36 µg compound per day", "quoted_text": "66 cl.4-GFP cells were harvested by trypsinization, centrifuged, resuspended in McCoy's media, containing no supplements at a density of 2 X 10^5/100µl. Mice were injected in the inguinal area at a point equal distance between the 4th and 5th nipples on the right side using a 23 gauge needle.\n50 mice were assigned (10 per group) to aerosol treatment, aerosol control, oral treatment, oral control, or to the no treatment group so that the average tumor volume for all groups were closely matched. […] Tumors were measured using calipers every other day, and volumes were calculated using the formula: volume (mm^3) = [width (mm)^2 X length (mm)] /2. Body weights were determined weekly.\nBalb/c mice were injected with 200,000 66 cl.4 GFP cells subcutaneous in the mammary fat pad area between the 4th and 5th nipple on the right side of the body.\nMice are injected with 200,000 66cl.4 GFP murine mammary tumor cells as described on day 0. Treatments are initiated on day 9 when tumors reached 1-3 mm in size. […] Data represent the mean +/- Standard Error (SE), N = 10 mice for control and treatment groups.\nBalb/c mice were injected s. c. with 2 X 10^5 66 cl.4-GFP cells in the inguinal area between the 4th and 5th nipple on the right side of the body. When tumors reached 2 x 2-4 x 4 mm (9 days after tumor injection), mice were placed into 5 groups ((Group 1: untreated control, Group 2: liposome/aerosol control, Group 3: liposomal α-TEA aerosol treatment, Group 4: peanut oil/gavage control, Group 5: α-TEA in peanut oil/gavage treatment) of 10 mice/group) such that the mean tumor volume of each group was closely matched. Daily treatments were initiated on day 9 after tumor injection.\nBalb/c mice were injected with 200,000 66 cl.4 GFP cells subcutaneous in the mammary fat pad area between the 4th and 5th nipple on the right side of the body. […] Animals were treated with α-TEA in liposome, vitamin E succinate in liposome, or control liposome alone via aerosol, 7 days per week, for 21 days. Animals were given 75 mg compound via nebulization per day such that each animal received 36 µg compound per day.\nThe size of the tumors, 9 - 21 days after injection of 200,000 66 cl.4 GFP cells between the 4th and 5th nipple on the right side of each mouse, is determined. Treatments are initiated on day 9 after tumor inoculation. Each group consists of n=10 +/- SE. Gavage Treatment = Treatments of 5 mg of α-TEA in ethanol and peanut oil (0.1 ml volume) are administered daily starting on day 9 after tumor inoculation and continuing through day 21. Gavage Control = Mice received peanut oil and ethanol alone (0.ml volume)/daily, starting on day 9 after tumor inoculation and continuing through day 21. Data (tumor size) are depicted as the mean +/- standard error for days 9, 11, 13, 15, 17, 19, and 21.\nBalb/c mice were injected with 200,000 66 cl.4 GFP cells subcutaneous in the mammary fat pad area between the 4th and 5th nipple on the right side of the body. […] Animals were treated with α-TEA in liposome, vitamin E succinate in liposome, or control liposome alone via oral gavage, 2 times per day, 7 days per week, for 21 days. Animals were given a total of 6 mg compound per day."}, "66 cl.4-GFP cells [5]": {"system": "66 cl.4-GFP cells", "experiment": "Fluorescent lung micrometastases of 66 cl.4-GFP tumors in Balb/c mice", "format": "in vivo", "excerpt": "as §1\n(§2) At sacrifice, the left lung lobe of each mouse of flash frozen and saves for detection of GFP expressing micrometatstic lesions via fluorescent microscopy."}, "66 cl.4-GFP cells [6]": {"system": "66 cl.4-GFP cells", "experiment": "Fluorescent lymph node micrometastases of 66 cl.4-GFP tumors in Balb/c mice", "format": "in vivo", "excerpt": "as §1, §2"}, "MDA-MB-435 GFP FL cells": {"system": "MDA-MB-435 GFP FL cells", "experiment": "Tumor growth of MDA-MB-435 GFP FL breast cancer cells in nude mice", "format": "in vivo, Nu/Nu athymic nude mice", "conditions": "day 35; α-TEA in liposome via aerosol; MSC 3ppm in water by gavage", "method": "Animals were given a total of 8 mg compound per day. […] Alpha-TEA liposome gavage reduced tumor growth by 68, 75, 78, 79 and 79% on days 27, 29, 31, 33, and 35, respectively (Fig. 15).\nAnimals were gavaged 3ppm methylselenocysteine (MSC) in water, α-TEA in liposome via aerosol, or gavaged 10 mg/kg b.w. trans-resveratrol (t-RES) in first 1:1, EtOH: physiological saline, and starting at day 24, 6.5% EtOH and 93.5% Neobee oil. A combination group was treated with each of the above three compounds, and a control group was treated with aerosolized liposome, 100 µl water, and 50 µl of the t-Res solvent. Animals were treated seven days a week, for 35+ days."}, "66 cl.4-GFP cells [7]": {"system": "66 cl.4-GFP cells", "experiment": "Apoptosis by morphological evaluation of DAPI-stained nuclei", "format": "cell-based, mouse", "conditions": "three days"}, "[8]": {"conditions": "liposomal formulation delivered by aerosol, tumor sections"}, "[9]": {"conditions": "aerosol liposome delivery, 30 min"}, "[10]": {"conditions": "Aerosol, in nebulizer per mouse: α-TEA 5 mg/d, 9NC 2 µg/d, combination 5 mg+2µg/d"}}, "note": "Read-outs that look alike come from different tables or passages of the source. Marks after values point to notes of the source that are not given here.", "data": [{"smiles": "CC(=O)Oc1c(C)c(C)c2c(c1C)CCC(C)(CCCC(C)CCCC(C)CCCC(C)C)O2", "note": "(racemic) [dl-α tocopherol acetate]", "values": [{"measurement": "Visible lung metastases/animal", "setting": "66 cl.4-GFP cells [1]", "value": 0.3}, {"measurement": "Inhibition (%) of visible lung metastases", "setting": "66 cl.4-GFP cells [1]", "value": 82, "unit": "%"}]}, {"smiles": "Cc1c(C)c2c(c(C)c1O)CCC(C)(CCCC(C)CCCC(C)CCCC(C)C)O2", "note": "(racemic) [dl-α-tocopherol, dl-alpha-tocopherol]", "values": [{"measurement": "% Enhanement of TUNEL Positive Apopotic Cells/Area", "setting": "66 cl.4-GFP tumors", "value": 44, "unit": "%"}, {"measurement": "% Enhanement of TUNEL Positive Apopotic Cells/Area", "setting": "66 cl.4-GFP tumors; listed as dl-alpha-tocopherol", "value": 44, "unit": "%"}, {"measurement": "TUNEL Positive Apopotic Cells/Area", "setting": "66 cl.4-GFP tumors; [8]", "value": 2.5}, {"measurement": "% Reduction of CD31 Blood Vessel Nos/Area", "setting": "CD31", "value": 51, "unit": "%"}, {"measurement": "% Reduction of CD31 Blood Vessel Nos/Area", "setting": "CD31; listed as dl-alpha-tocopherol", "value": 51, "unit": "%"}, {"measurement": "CD31 Blood Vessel Nos/Area", "setting": "CD31; [8]", "value": 112}, {"measurement": "Visible lung metastases/animal", "setting": "66 cl.4-GFP cells [1]", "value": 0.1}, {"measurement": "Inhibition (%) of visible lung metastases", "setting": "66 cl.4-GFP cells [1]", "value": "94** %"}, {"measurement": "% Reduction of KI67", "setting": "[2]", "value": 33, "unit": "%"}, {"measurement": "% Reduction of KI67", "setting": "[2]; listed as dl-alpha-tocopherol", "value": 33, "unit": "%"}, {"measurement": "KI67 Inhibition of Proliferation (%)", "setting": "[2]; [8]", "value": 40, "unit": "%"}]}, {"smiles": "CC[C@@]1(O)C(=O)OCc2c1cc1n(c2=O)Cc2cc3c([N+](=O)[O-])cccc3nc2-1", "note": "[9-nitrocamptothecin]", "values": [{"measurement": "Levels of 9-nitrocamptothecin in the brain", "setting": "[3]; [9]", "value": 61, "unit": "ng/g"}, {"measurement": "Levels of 9-nitrocamptothecin in the liver", "setting": "[3]; [9]", "value": 192, "unit": "ng/g"}, {"measurement": "Levels of 9-nitrocamptothecin in the lungs", "setting": "[3]; [9]", "value": 310, "unit": "ng/g"}, {"measurement": "Levels of 9-nitrocamptothecin in the liver", "setting": "[3]; intramuscular delivery, 30 min", "value": 136, "unit": "ng/g"}, {"measurement": "Levels of 9-nitrocamptothecin in the lungs", "setting": "[3]; intramuscular delivery, 30 min", "value": "2 to 4", "unit": "ng/g"}, {"measurement": "Levels of 9-nitrocamptothecin in the brain", "setting": "[3]; intramuscular delivery", "value": 0, "unit": "ng/g"}, {"measurement": "Inhibition (%) Tumor Growth", "setting": "66 cl.4-GFP cells [4]; [10]", "value": 58, "unit": "%"}, {"measurement": "Inhibition (%) Metastases Lung", "setting": "66 cl.4-GFP cells [5]; [10]", "value": 55, "unit": "%"}, {"measurement": "Inhibition (%) Metastases Lymphnode", "setting": "66 cl.4-GFP cells [6]; [10]", "value": 60, "unit": "%"}]}, {"smiles": "C[Se]C[C@H](N)C(=O)O", "note": "[MSC, methylselenocysteine, reference compound]", "values": [{"measurement": "tumor volume decrease from the control", "setting": "MDA-MB-435 GFP FL cells", "value": 47.2, "unit": "%"}]}, {"smiles": "Cc1cc(O)cc2c1O[C@](C)(CCC[C@H](C)CCC[C@H](C)CCCC(C)C)CC2", "note": "[RRR-delta tocopherol, RRR-delta-tocopherol]", "values": [{"measurement": "Visible lung metastases/animal", "setting": "66 cl.4-GFP cells [1]", "value": 0.3}, {"measurement": "Inhibition (%) of visible lung metastases", "setting": "66 cl.4-GFP cells [1]", "value": 82, "unit": "%"}]}, {"smiles": "Cc1c(C)c2c(c(C)c1O)CC[C@@](C)(CCC[C@H](C)CCC[C@H](C)CCCC(C)C)O2", "note": "[RRR-α tocopherol, RRR-α-tocopherol]", "values": [{"measurement": "tumor growth, determined by tumor volume, versus controls", "setting": "66 cl.4-GFP cells [4]", "value": "enhanced tumor growth"}, {"measurement": "Visible lung metastases/animal", "setting": "66 cl.4-GFP cells [1]", "value": 1.7}, {"measurement": "Inhibition (%) of visible lung metastases", "setting": "66 cl.4-GFP cells [1]", "value": 0, "unit": "%"}]}, {"smiles": "CC(C)=CCC/C(C)=C/CC/C(C)=C/CC[C@]1(C)CCc2c(C)c(O)c(C)c(C)c2O1", "note": "[RRR-α-tocotrienol, RRR-alpha-tocotrienol]", "values": [{"measurement": "Visible lung metastases/animal", "setting": "66 cl.4-GFP cells [1]", "value": 0.4}, {"measurement": "Inhibition (%) of visible lung metastases", "setting": "66 cl.4-GFP cells [1]", "value": 77, "unit": "%"}]}, {"smiles": "Cc1c(O)cc2c(c1C)O[C@](C)(CCC[C@H](C)CCC[C@H](C)CCCC(C)C)CC2", "note": "[RRR-γ tocopherol, RRR-γ-tocopherol]", "values": [{"measurement": "tumor growth, determined by tumor volume, versus controls", "setting": "66 cl.4-GFP cells [4]", "value": "enhanced tumor growth"}, {"measurement": "Visible lung metastases/animal", "setting": "66 cl.4-GFP cells [1]", "value": 1.15}, {"measurement": "Inhibition (%) of visible lung metastases", "setting": "66 cl.4-GFP cells [1]", "value": 32, "unit": "%"}]}, {"smiles": "Cc1c(C)c2c(c(C)c1OC(=O)CCC(=O)O)CC[C@@](C)(CCC[C@H](C)CCC[C@H](C)CCCC(C)C)O2", "note": "[vitamin E succinate, RRR-α-tocopheryl succinate, reference compound]", "values": [{"measurement": "apoptosis", "setting": "66 cl.4-GFP cells [7]; 2.5 µg/ml", "value": 3, "unit": "%"}, {"measurement": "apoptosis", "setting": "66 cl.4-GFP cells [7]; 5 µg/ml", "value": 5, "unit": "%"}, {"measurement": "apoptosis", "setting": "66 cl.4-GFP cells [7]; 10 µg/ml", "value": 16, "unit": "%"}, {"measurement": "apoptosis", "setting": "66 cl.4-GFP cells [7]; 20 µg/ml", "value": 34, "unit": "%"}, {"measurement": "reduced tumor growth", "setting": "66 cl.4-GFP cells [4]; 21 days, day 15", "value": 76, "unit": "%"}, {"measurement": "reduced tumor growth", "setting": "66 cl.4-GFP cells [4]; 21 days, day 17", "value": 76, "unit": "%"}, {"measurement": "reduced tumor growth", "setting": "66 cl.4-GFP cells [4]; 21 days, day 19", "value": 69, "unit": "%"}, {"measurement": "reduced tumor growth", "setting": "66 cl.4-GFP cells [4]; 21 days, day 21", "value": 68, "unit": "%"}, {"measurement": "tumor growth versus control liposome", "setting": "66 cl.4-GFP cells [4]; liposome gavage, 6 mg compound per day, 21 days", "value": "did not reduce tumor growth"}, {"measurement": "effect on lung metastasis", "setting": "66 cl.4-GFP cells [5]; liposomal formulation via gavage, 6 mg compound per day, 21 days", "value": "no effect on lung metastasis"}, {"measurement": "effect on lymph node micrometastatic lesions (Fig. 14B)", "setting": "66 cl.4-GFP cells [6]; liposome via gavage, 6 mg compound per day, 21 days", "value": "not effective in decreasing micrometastatic lung lesions"}]}]}
